Drawing on US20080275032A1, “Pyridazinone compounds” (priority 2006, published 2008), this text covers IC50 for 24 compounds.

As a reminder, the IC50 is the concentration that inhibits the measured activity by half.

Where only a bound is given, the exact number is not on record here.

Chain of HCV NS5B polymerase (P26663 2420-3010): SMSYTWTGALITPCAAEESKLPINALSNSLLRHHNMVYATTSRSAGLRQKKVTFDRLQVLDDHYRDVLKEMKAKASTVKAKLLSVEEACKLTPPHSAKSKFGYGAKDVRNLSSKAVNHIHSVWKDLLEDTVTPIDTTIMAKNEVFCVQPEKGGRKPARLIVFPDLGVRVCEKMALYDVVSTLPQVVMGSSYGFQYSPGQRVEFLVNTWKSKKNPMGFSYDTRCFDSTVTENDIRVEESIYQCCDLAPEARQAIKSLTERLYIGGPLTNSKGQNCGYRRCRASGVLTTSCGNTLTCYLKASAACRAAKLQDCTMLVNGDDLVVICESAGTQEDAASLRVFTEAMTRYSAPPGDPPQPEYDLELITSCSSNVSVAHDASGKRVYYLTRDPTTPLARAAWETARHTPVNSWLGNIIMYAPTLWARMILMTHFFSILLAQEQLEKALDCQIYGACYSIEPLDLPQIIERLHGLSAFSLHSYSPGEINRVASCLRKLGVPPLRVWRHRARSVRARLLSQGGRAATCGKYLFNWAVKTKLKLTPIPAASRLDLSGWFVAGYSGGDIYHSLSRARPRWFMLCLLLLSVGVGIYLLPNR

For the test, the target named is HCV NS5B polymerase (Hepatitis C virus genotype 1b, UniProt P26663). The test can be described thus: biochemical. The conditions noted are these: HCV polymerase inhibition, 50 nM enzyme, 2 h at room temperature, FlashPlate [α-33P]GTP incorporation. The method, then:
NS5B Polymerase Inhibition Assay (IC50)
Compounds were tested for HCV polymerase inhibition. Assays were performed in a 96-well streptavidin-coated FlashPlate using 50 nM enzyme, 0.5 μCi of [α-^33P]GTP, 0.6 μM GTP, and 50 nM 5′biotinylated oligo (rG13)/poly rC in 20 mM Tris-HCl, pH 7.5, 5 mM MgCl2, 20 mM NaCl, 5 mM dithiothreitol, and 0.1 g/L BSA. The reaction was stopped by aspiration after 2 h at room temperature and the plate was washed several times. After washing, incorporated radioactivity was counted using a Microbeta scintillation counter.
`COCCn1nc(-c2cccs2)c(O)c(C2=NS(=O)(=O)c3cc(NS(C)(=O)=O)ccc3N2)c1=O` [N-{3-[5-Hydroxy-2-(2-methoxy-ethyl)-3-oxo-6-thiophen-2-yl-2,3-dihydro-pyridazin-4-yl]-1,1-dioxo-1,2-dihydro-1λ^6-benzo[1,2,4]thiadiazin-7-yl}-methanesulfonamide] displayed an IC50 below 100 nM.

Turning to `COC(C)(C)CCn1nc(-c2cccs2)c(O)c(C2=NS(=O)(=O)c3cc(NS(C)(=O)=O)ccc3N2)c1=O` [N-{3-[5-Hydroxy-2-(3-methoxy-3-methyl-butyl)-3-oxo-6-thiophen-2-yl-2,3-dihydro-pyridazin-4-yl]-1,1-dioxo-1,2-dihydro-1λ^6-benzo[1,2,4]thiadiazin-7-yl}-methanesulfonamide], the IC50 is below 100 nM.

Compound `CC(C)CCn1nc(-c2cc[nH]c2)c(O)c(C2=Nc3ccc(NS(C)(=O)=O)cc3S(=O)(=O)N2)c1=O` [N-{3-[5-Hydroxy-2-(3-methyl-butyl)-3-oxo-6-(1H-pyrrol-3-yl)-2,3-dihydro-pyridazin-4-yl]-1,1-dioxo-1,2-dihydro-1λ^6-benzo[1,2,4]thiadiazin-7-yl}-methanesulfonamide] returned an IC50 below 100 nM.

`C/C(=C\c1nn(CCC(C)C)c(=O)c(C2=NS(=O)(=O)c3cc(NS(C)(=O)=O)ccc3N2)c1O)C(F)(F)F` [N-{3-[5-Hydroxy-2-(3-methyl-butyl)-3-oxo-6-(3,3,3-trifluoro-2-methyl-propenyl)-2,3-dihydro-pyridazin-4-yl]-1,1-dioxo-1,2-dihydro-1λ^6-benzo[1,2,4]thiadiazin-7-yl}-methanesulfonamide]: the IC50 was 100 to 1000 nM.

`CC(C)CCn1nc(-c2ccccc2)c(O)c(C2=Nc3ccc(N(C)S(C)(=O)=O)cc3S(=O)(=O)N2)c1=O` [N-{3-[5-Hydroxy-2-(3-methyl-butyl)-3-oxo-6-phenyl-2,3-dihydro-pyridazin-4-yl]-1,1-dioxo-1,2-dihydro-1λ^6-benzo[1,2,4]thiadiazin-7-yl}-N-methyl-methanesulfonamide] came in with an IC50 of 1000 to 10000 nM.

In turn, `CC(C)CCn1nc(-c2ccccc2)c(O)c(C2=Nc3ccc(NS(C)(=O)=O)cc3S(=O)(=O)N2)c1=O` [N-{3-[5-Hydroxy-2-(3-methyl-butyl)-3-oxo-6-phenyl-2,3-dihydro-pyridazin-4-yl]-1,1-dioxo-1,2-dihydro-1λ^6-benzo[1,2,4]thiadiazin-7-yl}-methanesulfonamide] displayed an IC50 below 100 nM.

Turning to `CC(C)CCn1nc(-c2cncs2)c(O)c(C2=NS(=O)(=O)c3cc(NS(C)(=O)=O)ccc3N2)c1=O` [N-{3-[5-Hydroxy-2-(3-methyl-butyl)-3-oxo-6-thiazol-5-yl-2,3-dihydro-pyridazin-4-yl]-1,1-dioxo-1,2-dihydro-1λ^6-benzo[1,2,4]thiadiazin-7-yl}-methanesulfonamide], the IC50 was below 100 nM.

In the case of `CC(C)CCn1nc(-c2cccs2)c(O)c(C2=Nc3ccc(N(C(C)C)S(C)(=O)=O)cc3S(=O)(=O)N2)c1=O` [N-{3-[5-Hydroxy-2-(3-methyl-butyl)-3-oxo-6-thiophen-2-yl-2,3-dihydro-pyridazin-4-yl]-1,1-dioxo-1,2-dihydro-1λ^6-benzo[1,2,4]thiadiazin-7-yl}-N-isopropyl-methanesulfonamide], the IC50 lay within 1000 to 10000 nM.

For `CC(C)CCn1nc(-c2cccs2)c(O)c(C2=NS(=O)(=O)c3cc(N(C)S(C)(=O)=O)ccc3N2C)c1=O` [N-{3-[5-Hydroxy-2-(3-methyl-butyl)-3-oxo-6-thiophen-2-yl-2,3-dihydro-pyridazin-4-yl]-4-methyl-1,1-dioxo-1,4-dihydro-1λ^6-benzo[1,2,4]thiadiazin-7-yl}-N-methyl-methanesulfonamide], the IC50 fell in the range of 1000 to 10000 nM.

`CC(C)CCn1nc(-c2ccn(C)c2)c(O)c(C2=Nc3ccc(NS(C)(=O)=O)cc3S(=O)(=O)N2)c1=O` [N-{3-[5-Hydroxy-2-(3-methyl-butyl)-6-(1-methyl-1H-pyrrol-3-yl)-3-oxo-2,3-dihydro-pyridazin-4-yl]-1,1-dioxo-1,2-dihydro-1λ^6-benzo[1,2,4]thiadiazin-7-yl}-methanesulfonamide]: the IC50 is below 100 nM.

In the case of `CC(C)=Cc1nn(CCC(C)C)c(=O)c(C2=NS(=O)(=O)c3cc(NS(C)(=O)=O)ccc3N2)c1O` [N-{3-[5-Hydroxy-2-(3-methyl-butyl)-6-(2-methyl-propenyl)-3-oxo-2,3-dihydro-pyridazin-4-yl]-1,1-dioxo-1,2-dihydro-1λ^6-benzo[1,2,4]thiadiazin-7-yl}-methanesulfonamide], the IC50 was below 100 nM.

`CCC(C)CCn1nc(-c2cccs2)c(O)c(C2=NS(=O)(=O)c3cc(NS(C)(=O)=O)ccc3N2)c1=O` (stereo not drawn) [N-{3-[5-Hydroxy-2-(3-methyl-pentyl)-3-oxo-6-thiophen-2-yl-2,3-dihydro-pyridazin-4-yl]-1,1-dioxo-1,2-dihydro-1λ^6-benzo[1,2,4]thiadiazin-7-yl}-methanesulfonamide]: the half-maximal inhibitory concentration (IC50) was below 100 nM.

`CN(c1ccc2c(c1)S(=O)(=O)NC(c1c(O)c(-c3cccs3)nn(CC3(C(F)(F)F)CC3)c1=O)=N2)S(C)(=O)=O` [N-{3-[5-Hydroxy-3-oxo-6-thiophen-2-yl-2-(1-trifluoromethyl-cyclopropylmethyl)-2,3-dihydro-pyridazin-4-yl]-1,1-dioxo-1,2-dihydro-1λ^6-benzo[1,2,4]thiadiazin-7-yl}-N-methyl-methanesulfonamide] gave an IC50 below 100 nM.

`CS(=O)(=O)Nc1ccc2c(c1)S(=O)(=O)N=C(c1c(O)c(-c3cccs3)nn(CC3(C(F)(F)F)CC3)c1=O)N2` [N-{3-[5-Hydroxy-3-oxo-6-thiophen-2-yl-2-(1-trifluoromethyl-cyclopropylmethyl)-2,3-dihydro-pyridazin-4-yl]-1,1-dioxo-1,2-dihydro-1λ^6-benzo[1,2,4]thiadiazin-7-yl}-methanesulfonamide]: the 50% inhibitory concentration (IC50) was below 100 nM.

The compound `CCC(C)(C)c1nn(CCC(C)C)c(=O)c(C2=NS(=O)(=O)c3cc(NS(C)(=O)=O)ccc3N2)c1O` [N-{3-[6-(1,1-Dimethyl-propyl)-5-hydroxy-2-(3-methyl-butyl)-3-oxo-2,3-dihydro-pyridazin-4-yl]-1,1-dioxo-1,2-dihydro-1λ^6-benzo[1,2,4]thiadiazin-7-yl}-methanesulfonamide] yielded an IC50 of 100 to 1000 nM.

For the compound `CC(C)CCn1nc(CCC2OCCCO2)c(O)c(C2=Nc3ccc(NS(C)(=O)=O)cc3S(=O)(=O)N2)c1=O` [N-{3-[6-(2-[1,3]Dioxan-2-yl-ethyl)-5-hydroxy-2-(3-methyl-butyl)-3-oxo-2,3-dihydro-pyridazin-4-yl]-1,1-dioxo-1,2-dihydro-1λ^6-benzo[1,2,4]thiadiazin-7-yl}-methanesulfonamide], the IC50 is 100 to 1000 nM.

`CC(C)CCn1nc(CC2CCC2)c(O)c(C2=NS(=O)(=O)c3cc(NS(C)(=O)=O)ccc3N2)c1=O` [N-{3-[6-Cyclobutylmethyl-5-hydroxy-2-(3-methyl-butyl)-3-oxo-2,3-dihydro-pyridazin-4-yl]-1,1-dioxo-1,2-dihydro-1λ^6-bnezo[1,2,4]thiadiazin-7-yl}-methanesulfonamide]: the IC50 lay within 100 to 1000 nM.

Consider `CC(C)CCn1nc(C2=CCCC2)c(O)c(C2=NS(=O)(=O)c3cc(NS(C)(=O)=O)ccc3N2)c1=O` [N-{3-[6-Cyclopent-1-enyl-5-hydroxy-2-(3-methyl-butyl)-3-oxo-2,3-dihydro-pyridazin-4-yl]-1,1-dioxo-1,2-dihydro-1λ^6-benzo[1,2,4]thiadiazin-7-yl}-methanesulfonamide], for which the IC50 is below 100 nM.

`CC(C)CCn1nc(CC2=CCCC2)c(O)c(C2=NS(=O)(=O)c3cc(NS(C)(=O)=O)ccc3N2)c1=O` [N-{3-[6-Cyclopent-1-enylmethyl-5-hydroxy-2-(3-methyl-butyl)-3-oxo-2,3-dihydro-pyridazin-4-yl]-1,1-dioxo-1,2-dihydro-1λ^6-benzo[1,2,4]thiadiazin-7-yl}-methanesulfonamide] displayed an IC50 of 100 to 1000 nM.

On to `CC(C)(C)c1nn(Cc2ccc(F)c(Cl)c2)c(=O)c(C2=Nc3ccc(NS(C)(=O)=O)cc3S(=O)(=O)N2)c1O` [N-{3-[6-tert-Butyl-2-(3-chloro-4-fluoro-benzyl)-5-hydroxy-3-oxo-2,3-dihydro-pyridazin-4-yl]-1,1-dioxo-1,2-dihydro-1λ^6-benzo[1,2,4]thiadiazin-7-yl}-methanesulfonamide], for which the IC50 fell in the range of 100 to 1000 nM.

As for `CCCS(=O)(=O)Nc1ccc2c(c1)S(=O)(=O)NC(c1c(O)c(-c3cncs3)nn(CCC(C)C)c1=O)=N2` [Propane-1-sulfonic acid {3-[5-hydroxy-2-(3-methyl-butyl)-3-oxo-6-thiazol-5-yl-2,3-dihydro-pyridazin-4-yl]-1,1-dioxo-1,2-dihydro-1λ^6-benzo[1,2,4]thiadiazin-7-yl}-amide], the IC50 was below 100 nM.

For `CCCS(=O)(=O)Nc1ccc2c(c1)S(=O)(=O)N=C(c1c(O)c(-c3cccs3)nn(CCC(C)C)c1=O)N2` [Propane-1-sulfonic acid {3-[5-hydroxy-2-(3-methyl-butyl)-3-oxo-6-thiophen-2-yl-2,3-dihydro-pyridazin-4-yl]-1,1-dioxo-1,2-dihydro-1λ^6-benzo[1,2,4]thiadiazin-7-yl}-amide], the IC50 is below 100 nM.

As to `CC(C)S(=O)(=O)Nc1ccc2c(c1)S(=O)(=O)NC(c1c(O)c(-c3cccs3)nn(CCC3CC3)c1=O)=N2` [Propane-2-sulfonic acid {3-[2-(2-cyclopropyl-ethyl)-5-hydroxy-3-oxo-6-thiophen-2-yl-2,3-dihydro-pyridazin-4-yl]-1,1-dioxo-1,2-dihydro-1λ^6-benzo[1,2,4]thiadiazin-7-yl}-amide], the IC50 is below 100 nM.

With `CC(C)CCn1nc(-c2cncs2)c(O)c(C2=Nc3ccc(NS(=O)(=O)C(C)C)cc3S(=O)(=O)N2)c1=O` [Propane-2-sulfonic acid {3-[5-hydroxy-2-(3-methyl-butyl)-3-oxo-6-thiazol-5-yl-2,3-dihydro-pyridazin-4-yl]-1,1-dioxo-1,2-dihydro-1λ^6-benzo[1,2,4]thiadiazin-7-yl}-amide], the IC50 was below 100 nM.
